System: B16F10 murine melanoma
Assay: Anticancer activity and survival in C57 black mice bearing s.c. B16F10 melanoma
Assay type: in vivo, mouse
Protocol: Twenty four C57 black mice were injected subcutaneously (s.c.) with 10^5 B16F10 murine melanoma cells as described above and then monitored daily for well-being and the presence of palpable tumours. When the tumours were palpable, mice were randomly assigned into groups of six and their tumours measured with a micrometer gauge. Tumour size and mouse body weight is recorded. Each group is then injected intra-peritoneally with either sterile saline (negative control), free doxorubicin (5 mg kg^−1) in sterile saline or dextrin-doxorubicin (11.8 wt %, 34% succinolyation) at either 5 mg kg^−1 or 10 mg kg^−1, on days 0,1 and 2. The mice were monitored daily and tumour size and body weight recorded. Once the tumour area exceeded 2.89 cm^2 the mice were culled according to UKCCCR guidelines. Mouse survival is then expressed as % T/C (test/control saline).

Structure (SMILES): COc1cccc2c1C(=O)c1c(O)c3c(c(O)c1C2=O)C[C@@](O)(C(=O)CO)C[C@@H]3O[C@H]1C[C@H](N)[C@H](O)[C@H](C)O1 [doxorubicin]
- anticancer activity (5 mg kg^-1 i.p.): not active
- body weight / toxicity (5 mg kg^-1 i.p.): drop in body weight consistent with toxicity
- Toxic deaths (5 mg kg^-1 i.p. on day 0,1,2): 0/6
- Days survival after treatment (mean ± SD) (5 mg kg^-1 i.p. on day 0,1,2, N = 6): 4.5 ± 0.5^ns days
- T/C (%) (5 mg kg^-1 i.p. on day 0,1,2, survival test/control saline): 103%

Reference: US6818630B1, “Biologically active materials” (ML Laboratories PLC, priority 1999, dated 2004)
